Assay results taken from patent US20210045385A1, “PYRIDAZINONE-SUBSTITUTED KETOXIMES AS HERBICIDES” (FMC Corporation, priority 2018, published 2021).

Legend:
Format in all cases: in vivo
[1] = tested on: Italian ryegrass (Lolium multiflorum); assay: Test A preemergence, visual plant response rating; conditions: for Ryegrass, Italian plant response rating: 125 g ai/ha, preemergence, 0 to 100 scale, 0 no effect, 100 complete control; for Ryegrass, Italian plant response rating (0 to 100 scale): 500 g ai/ha Preemergence, approx. 10 days
Procedure, shortened: (§1)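 Formulated in a non-phytotoxic solvent mixture including surfactant, each test chemical was sprayed onto the soil surface after sowing, or onto seedlings 2 to 10 cm high. Roughly 10 days later, plants were compared with untreated controls and rated for injury from 0 (no effect) to 100 (complete control).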

[2] = tested on: barnyardgrass (Echinochloa crus-galli); assay: Test A preemergence, visual plant response rating; conditions: for Barnyardgrass plant response rating: 125 g ai/ha, preemergence, 0 to 100 scale, 0 no effect, 100 complete control; for Barnyardgrass plant response rating (0 to 100 scale): 500 g ai/ha Preemergence, approx. 10 days
Procedure, shortened: as §1

[3] = tested on: foxtail, giant (giant foxtail, Setaria faberii); assay: Test A preemergence, visual plant response rating; conditions: for Foxtail, Giant plant response rating: 125 g ai/ha, preemergence, 0 to 100 scale, 0 no effect, 100 complete control; for Foxtail, Giant plant response rating (0 to 100 scale): 500 g ai/ha Preemergence, approx. 10 days
Procedure, shortened: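 Ratings 0–100 (100 = complete control), visual, vs untreated controls at ~10 days. Application pre- or postemergence; solvent mixture with surfactant; loam/sand medium.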

kochia (Kochia scoparia) [4] = assay: Test A preemergence, visual plant response rating; conditions: for Kochia plant response rating: 125 g ai/ha, preemergence, 0 to 100 scale, 0 no effect, 100 complete control; for Kochia plant response rating (0 to 100 scale): 500 g ai/ha Preemergence, approx. 10 days
Procedure, shortened: as §1

[5] = tested on: pigweed (Amaranthus retroflexus); assay: Test A preemergence, visual plant response rating; conditions: for Pigweed plant response rating: 125 g ai/ha, preemergence, 0 to 100 scale, 0 no effect, 100 complete control; for Pigweed plant response rating (0 to 100 scale): 500 g ai/ha Preemergence, approx. 10 days
Procedure, shortened: as §1

[6] = tested on: ragweed (common ragweed, Ambrosia elatior); assay: Test A preemergence, visual plant response rating; conditions: for Ragweed plant response rating: 125 g ai/ha, preemergence, 0 to 100 scale, 0 no effect, 100 complete control; for Ragweed plant response rating (0 to 100 scale): 500 g ai/ha Preemergence, approx. 10 days
Procedure, shortened: as §1

[7] = tested on: Italian ryegrass (Lolium multiflorum); assay: Test A postemergence, visual plant response rating; conditions: for Ryegrass, Italian plant response rating (0 to 100 scale): 500 g ai/ha, postemergence, 0 is no effect, 100 is complete control; for Ryegrass, Italian plant response rating: Postemergence, 125 g ai/ha, 0 to 100 scale (0 no effect, 100 complete control)
Procedure, shortened: as §1

[8] = tested on: barnyardgrass (Echinochloa crus-galli); assay: Test A postemergence, visual plant response rating; conditions: for Barnyardgrass plant response rating (0 to 100 scale): 500 g ai/ha, postemergence, 0 is no effect, 100 is complete control; for Barnyardgrass plant response rating: Postemergence, 125 g ai/ha, 0 to 100 scale (0 no effect, 100 complete control)
Procedure, shortened: as §1

[9] = tested on: blackgrass (Alopecurus myosuroides); assay: Test A postemergence, visual plant response rating; conditions: for Blackgrass plant response rating (0 to 100 scale): 500 g ai/ha, postemergence, 0 is no effect, 100 is complete control; for Blackgrass plant response rating: Postemergence, 125 g ai/ha, 0 to 100 scale (0 no effect, 100 complete control)
Procedure, shortened: as §1

corn (Zea mays) = assay: Test A postemergence, visual plant response rating; conditions: for Corn plant response rating (0 to 100 scale): 500 g ai/ha, postemergence, 0 is no effect, 100 is complete control; for Corn plant response rating: Postemergence, 125 g ai/ha, 0 to 100 scale (0 no effect, 100 complete control)
Procedure, shortened: as §1

[10] = tested on: foxtail, giant (giant foxtail, Setaria faberii); assay: Test A postemergence, visual plant response rating; conditions: for Foxtail, Giant plant response rating (0 to 100 scale): 500 g ai/ha, postemergence, 0 is no effect, 100 is complete control; for Foxtail, Giant plant response rating: Postemergence, 125 g ai/ha, 0 to 100 scale (0 no effect, 100 complete control)
Procedure, shortened: as §1

[11] = tested on: galium (catchweed bedstraw, Galium aparine); assay: Test A postemergence, visual plant response rating; conditions: for Galium plant response rating (0 to 100 scale): 500 g ai/ha, postemergence, 0 is no effect, 100 is complete control; for Galium plant response rating: Postemergence, 125 g ai/ha, 0 to 100 scale (0 no effect, 100 complete control)
Procedure, shortened: as §1

kochia (Kochia scoparia) [12] = assay: Test A postemergence, visual plant response rating; conditions: for Kochia plant response rating (0 to 100 scale): 500 g ai/ha, postemergence, 0 is no effect, 100 is complete control; for Kochia plant response rating: Postemergence, 125 g ai/ha, 0 to 100 scale (0 no effect, 100 complete control)
Procedure, shortened: as §1

[13] = tested on: pigweed (Amaranthus retroflexus); assay: Test A postemergence, visual plant response rating; conditions: for Pigweed plant response rating (0 to 100 scale): 500 g ai/ha, postemergence, 0 is no effect, 100 is complete control; for Pigweed plant response rating: Postemergence, 125 g ai/ha, 0 to 100 scale (0 no effect, 100 complete control)
Procedure, shortened: as §1

[14] = tested on: ragweed (common ragweed, Ambrosia elatior); assay: Test A postemergence, visual plant response rating; conditions: for Ragweed plant response rating (0 to 100 scale): 500 g ai/ha, postemergence, 0 is no effect, 100 is complete control; for Ragweed plant response rating: Postemergence, 125 g ai/ha, 0 to 100 scale (0 no effect, 100 complete control)
Procedure, shortened: as §1

[15] = tested on: wheat (Triticum aestivum); assay: Test A postemergence, visual plant response rating; conditions: for Wheat plant response rating (0 to 100 scale): 500 g ai/ha, postemergence, 0 is no effect, 100 is complete control; for Wheat plant response rating: Postemergence, 125 g ai/ha, 0 to 100 scale (0 no effect, 100 complete control)
Procedure, shortened: as §1

[16] = tested on: barnyardgrass (Echinochloa crus-galli); assay: Test B flooded paddy test, visual plant response rating; conditions: 250 g ai/ha, Flood, applied to paddy water, 2-leaf stage, evaluated after 13 to 15 days
Procedure, shortened: (§2)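 Plants were raised to the 2-leaf stage, then pots were flooded to 3 cm above the soil and test compound was applied directly into the paddy water. Water depth was held for the whole test; after 13 to 15 days in a greenhouse, responses were scored visually against controls.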

[17] = tested on: ducksalad (Heteranhera limosa); assay: as above; conditions: 250 g ai/ha, Flood, applied to paddy water, 2-leaf stage, evaluated after 13 to 15 days
Procedure, shortened: as §2

rice (Oryza sativa) = assay: as above; conditions: 250 g ai/ha, Flood, applied to paddy water, 2-leaf stage, evaluated after 13 to 15 days
Procedure, shortened: as §2

[18] = tested on: sedge, umbrella (small-flower umbrella sedge, Cyperus difformis); assay: as above; conditions: 250 g ai/ha, Flood, applied to paddy water, 2-leaf stage, evaluated after 13 to 15 days
Procedure, shortened: as §2

| SMILES | Ryegrass, Italian plant response rating [1] | Ryegrass, Italian plant response rating (0 to 100 scale) [1] | Barnyardgrass plant response rating [2] | Barnyardgrass plant response rating (0 to 100 scale) [2] | Foxtail, Giant plant response rating [3] | Foxtail, Giant plant response rating (0 to 100 scale) [3] | Kochia plant response rating (kochia (Kochia scoparia) [4]) | Kochia plant response rating (0 to 100 scale) (kochia (Kochia scoparia) [4]) | Pigweed plant response rating [5] | Pigweed plant response rating (0 to 100 scale) [5] | Ragweed plant response rating [6] | Ragweed plant response rating (0 to 100 scale) [6] | Ryegrass, Italian plant response rating (0 to 100 scale) [7] | Ryegrass, Italian plant response rating [7] | Barnyardgrass plant response rating (0 to 100 scale) [8] | Barnyardgrass plant response rating [8] | Blackgrass plant response rating (0 to 100 scale) [9] | Blackgrass plant response rating [9] | Corn plant response rating (0 to 100 scale) (corn (Zea mays)) | Corn plant response rating (corn (Zea mays)) | further results |
| --- | --- | --- | --- | --- | --- | --- | --- | --- | --- | --- | --- | --- | --- | --- | --- | --- | --- | --- | --- | --- | --- |
| CON=C(c1cccc(C#N)c1)c1c(O)c(C)nn(C)c1=O [Compound 57] | 0 | 0 | 0 | 0 | 0 | 30 | 0 | 10 | 0 | 0 | 0 | 0 | 20 | 10 | 0 | 0 | 0 | 0 | 0 | 20 | Foxtail, Giant plant response rating (0 to 100 scale) [10]: 0; Foxtail, Giant plant response rating [10]: 0; Galium plant response rating (0 to 100 scale) [11]: 50; Galium plant response rating [11]: 10; Kochia plant response rating (0 to 100 scale) (kochia (Kochia scoparia) [12]): 50; Kochia plant response rating (kochia (Kochia scoparia) [12]): 0; Pigweed plant response rating (0 to 100 scale) [13]: 30; Pigweed plant response rating [13]: 30; Ragweed plant response rating (0 to 100 scale) [14]: 10; Ragweed plant response rating [14]: 0; Wheat plant response rating (0 to 100 scale) [15]: 10; Wheat plant response rating [15]: 0; Plant response rating, Barnyardgrass (0 to 100 scale, 0 is no effect, 100 is complete control) [16]: 15; Plant response rating, Ducksalad (0 to 100 scale, 0 is no effect, 100 is complete control) [17]: 0; Plant response rating, Rice (0 to 100 scale, 0 is no effect, 100 is complete control) (rice (Oryza sativa)): 15; Plant response rating, Sedge, Umbrella (0 to 100 scale, 0 is no effect, 100 is complete control) [18]: 0 |
| CCO/N=C(/c1c(O)c(C)nn(C)c1=O)c1cc(Br)cc2ccccc12 [Compound 113, 4-[(E)-(3-bromo-1-naphthalenyl)(ethoxyimino)methyl]-5-hydroxy-2,6-dimethyl-3(2H)-pyridazinone] | 80 | 100 | 90 | 100 | 100 | 100 | 30 | 90 | 80 | 100 | 90 | 90 | 90 | 80 | 90 | 90 | 100 | 90 | 80 | 40 | Foxtail, Giant plant response rating (0 to 100 scale) [10]: 90; Foxtail, Giant plant response rating [10]: 90; Galium plant response rating (0 to 100 scale) [11]: 100; Galium plant response rating [11]: 100; Kochia plant response rating (0 to 100 scale) (kochia (Kochia scoparia) [12]): 90; Kochia plant response rating (kochia (Kochia scoparia) [12]): 60; Pigweed plant response rating (0 to 100 scale) [13]: 100; Pigweed plant response rating [13]: 100; Ragweed plant response rating (0 to 100 scale) [14]: 100; Ragweed plant response rating [14]: 90; Wheat plant response rating (0 to 100 scale) [15]: 60; Wheat plant response rating [15]: 50; Plant response rating, Barnyardgrass (0 to 100 scale, 0 is no effect, 100 is complete control) [16]: 85; Plant response rating, Ducksalad (0 to 100 scale, 0 is no effect, 100 is complete control) [17]: 75; Plant response rating, Rice (0 to 100 scale, 0 is no effect, 100 is complete control) (rice (Oryza sativa)): 60; Plant response rating, Sedge, Umbrella (0 to 100 scale, 0 is no effect, 100 is complete control) [18]: 50 |
| CON=C(c1c(O)c(C)nn(C)c1=O)c1cccc2ccc(Cl)cc12 [Compound 111] | 30 | 70 | 60 | 70 | 50 | 90 | 20 | 100 | 100 | 100 | 70 | 100 | 90 | 70 | 80 | 50 | 100 | 80 | 30 | 20 | Foxtail, Giant plant response rating (0 to 100 scale) [10]: 70; Foxtail, Giant plant response rating [10]: 60; Galium plant response rating (0 to 100 scale) [11]: 90; Galium plant response rating [11]: 80; Kochia plant response rating (0 to 100 scale) (kochia (Kochia scoparia) [12]): 60; Kochia plant response rating (kochia (Kochia scoparia) [12]): 40; Pigweed plant response rating (0 to 100 scale) [13]: 90; Pigweed plant response rating [13]: 60; Ragweed plant response rating (0 to 100 scale) [14]: 80; Ragweed plant response rating [14]: 80; Wheat plant response rating (0 to 100 scale) [15]: 60; Wheat plant response rating [15]: 0; Plant response rating, Barnyardgrass (0 to 100 scale, 0 is no effect, 100 is complete control) [16]: 0; Plant response rating, Ducksalad (0 to 100 scale, 0 is no effect, 100 is complete control) [17]: 0; Plant response rating, Rice (0 to 100 scale, 0 is no effect, 100 is complete control) (rice (Oryza sativa)): 0; Plant response rating, Sedge, Umbrella (0 to 100 scale, 0 is no effect, 100 is complete control) [18]: 0 |
| CO/N=C(/c1ccccc1F)c1c(O)c(C)nn(C)c1=O [Compound 62] | 10 | 40 | 0 | 0 | 0 | 0 | 0 | 0 | 0 | 0 | 0 | 30 | 20 | 0 | 0 | 0 | 10 | 10 | 0 | 0 | Foxtail, Giant plant response rating (0 to 100 scale) [10]: 10; Foxtail, Giant plant response rating [10]: 0; Galium plant response rating (0 to 100 scale) [11]: 70; Galium plant response rating [11]: 20; Kochia plant response rating (0 to 100 scale) (kochia (Kochia scoparia) [12]): 20; Kochia plant response rating (kochia (Kochia scoparia) [12]): 0; Pigweed plant response rating (0 to 100 scale) [13]: 30; Pigweed plant response rating [13]: 10; Ragweed plant response rating (0 to 100 scale) [14]: 40; Ragweed plant response rating [14]: 20; Wheat plant response rating (0 to 100 scale) [15]: 0; Wheat plant response rating [15]: 0; Plant response rating, Barnyardgrass (0 to 100 scale, 0 is no effect, 100 is complete control) [16]: 0; Plant response rating, Ducksalad (0 to 100 scale, 0 is no effect, 100 is complete control) [17]: 0; Plant response rating, Rice (0 to 100 scale, 0 is no effect, 100 is complete control) (rice (Oryza sativa)): 0; Plant response rating, Sedge, Umbrella (0 to 100 scale, 0 is no effect, 100 is complete control) [18]: 0 |
